Laboratory results as given in patent US20170143006A1, “Composition and Use Thereof” (DUPONT NUTRITION BIOSCIENCES APS, priority 2014, published 2017).
Counter-ions that a name gives are not always drawn. Marks after values point to notes of the source that are not given here.

Legend:
ruminal fluid [1] = test: In vitro fermentation in buffered goat ruminal fluid, 24 h: ruminal parameters (DM, pH, residue, digestibility, N-NH3); format: cell-based, Murciano-Granadina goats; conditions: 24 h incubation
Source text: (§1) Twelve mature Murciano-Granadina goats of similar body weight (46.97±2.5 kg BW) during late lactation were randomly split into 4 groups. Each group was fed with the same total mixed ration for 10 days. Each group included 4 g/kg of one of four types of betaine additive: • 1—Non Coated Betaine BS1 (Betafin S1, natural betaine, DuPont) • 2—Coated Betaine B52 (see preparative example 3) • 3—Coated Betaine B60 (see preparative example 4) • 4—Uncoated Betaine HCl
(§2) After an adaptation period to the diets including betaine of 10 days, ruminal fluid was obtained by means of an oesophagus probe from all goats. Ruminal fluid from goats (3 per treatment) was obtained just before feeding, transported to the laboratory and immediately strained/filtered across/through four layers of cheesecloth and mixed into an Erlenmeyer flask.
The in vitro fermentation was carried out by the following incubation process; the squeezed rumen fluid (after filtration) was mixed with Goering and Van Soest (1970) buffer solution in a 1:4 (v/v) ratio at 39° C. under continuous flow of CO2. […]
Bottles were sealed and incubated at 39° C. for 24 h. Gas measurements were recorded every hour, while pH was measured at the start and right after 24 h; crude fiber, digestibility, CH4 and volatile fatty acid (VFA) concentrations were determined after 24 h of incubation. […]

ruminal fluid [2] = test: In vitro fermentation in buffered goat ruminal fluid, 24 h: gas production (methane content CH4); format: cell-based, Murciano-Granadina goats; conditions: for Gas production / mL CH4: after 24 hrs of incubation; for CH4/S / mL CH4/S / mL gas/S: per S (substrate in g DM), 24 hrs
Method: The gas content can be analysed in a Focus Gas Chromatograph (Thermo, Milan, Italy) equipped with a split/splitless injector and a flame ionization detector. The separation can be performed in a GS-Q capillary column (J&W Scientific, USA) (30 m×0.32 mm i.d.). The carrier gas may be Helium at a constant flow of 1 ml/min. The samples may be injected with a split ratio of 1/100. The initial oven temperature can be set at 50° C. held for 1 min and increased to 150 at 50° C./min and finally maintained at that temperature for 2 min. Both detector and injector temperatures can be set at 200° C. An external standard (41.21% CO2 and 58.79% CH4) may be employed for quantification of methane content in samples.
as §1, §2
(§3) The in vitro fermentation was carried out by the following incubation process; the squeezed rumen fluid (after filtration) was mixed with Goering and Van Soest (1970) buffer solution in a 1:4 (v/v) ratio at 39° C. under continuous flow of CO2.
(§4) Samples of 1 g of total ration (0.4 g concentrate and 0.6 g alfalfa hay) plus betaine (0.015 g of each type) were accurately weighed and mixed into 125 mL bottles (ANKOM RF equipment). 50 mL of the buffered rumen fluid was added to each bottle under CO2 flow.
(§5) Bottles were sealed and incubated at 39° C. for 24 h. Gas measurements were recorded every hour, while pH was measured at the start and right after 24 h; crude fiber, digestibility, CH4 and volatile fatty acid (VFA) concentrations were determined after 24 h of incubation.

ruminal fluid [3] = test: In vitro fermentation in buffered goat ruminal fluid, 24 h: determination of volatile fatty acids (VFA); format: cell-based, Murciano-Granadina goats; conditions: after 24 h of incubation
Method: Determination of VFA can be based on the method previously described by Jouany, J. P., Volatile fatty acid and alcohol determination in digestive contents, silage juices, bacterial cultures and anaerobic fermentor contents; Sciences des Aliments, 2: 131-144, 1982.
For instance, samples are filtered through 0.45 μm cellulose syringe filters. One hundred microliters of an internal standard solution (0.4 g of 4-metil-valeric acid diluted in 100 ml of deionised water) and 0.1 ml of a preservative (a mix of 5% H3PO4 and 1% CIHg in deionised water) are added to 0.8 ml of filtrate. One μL from each sample is injected in a gas chromatograph (Fisons 8000 series, Milan, Italy) equipped with a split/splitless injector and FID detector. The separation of SOFA (short chain fatty acids) is made in a DB-FFAP capillary column (30 m×0.25 mm×0.25 μm of film thickness) J&W Scientific (USA). The carrier gas is N2 at a constant pressure of 120 KPa. Both detector and injector temperatures are set at 245° C. The initial oven temperature is set at 115° C. held for 5 min and increased to 230 at 8.5° C./min and finally maintained at that temperature for 10 min. SOFA are identified by comparing their retention times with a standard (46975-U de Supelco®, PA, USA).
as §1, §2, §3, §4, §5

[4] = pure form, white crystalline compound; cited from earlier work

SMILES: C[N+](C)(C)CC(=O)O [BHCl, Betaine HCl, reference compound]
- N—NH3, mg/L (ammonia nitrogen) (ruminal fluid [1]): 51.13 mg/L
- Gas production (ruminal fluid [2]): 210.67 mL
- mL CH4 (ruminal fluid [2]): 10.68^a mL
- CH4/S (ruminal fluid [2]): 437.48 J
- mL CH4/S (ruminal fluid [2]): 11.10^a mL
- mL gas/S (ruminal fluid [2]): 218.70 mL
- Acetic acid (ruminal fluid [3]): 63.90
- Butyric acid (ruminal fluid [3]): 14.63^a
- Isobutyric acid (ruminal fluid [3]): 0.61
- Isovaleric acid (ruminal fluid [3]): 0.95
- N-Caproic acid (ruminal fluid [3]): 0.19
- N-Valeric acid (ruminal fluid [3]): 1.64
- Propionic acid (ruminal fluid [3]): 18.07^b
- Total VFA (ruminal fluid [3]): 47.13 mmol/L

SMILES: C[N+](C)(C)CC(=O)[O-] [betaine, trimethylglycine]
- solubility in water and lower alcohols [4]: readily soluble

SMILES: C[N+](C)(C)CC(=O)[O-] [BS1, betaine]
- N—NH3, mg/L (ammonia nitrogen) (ruminal fluid [1]): 45.04 mg/L
- Gas production (ruminal fluid [2]): 203.41 mL
- mL CH4 (ruminal fluid [2]): 12.17^a mL
- CH4/S (ruminal fluid [2]): 498.54 J
- mL CH4/S (ruminal fluid [2]): 12.65^a mL
- mL gas/S (ruminal fluid [2]): 210.33 mL
- Acetic acid (ruminal fluid [3]): 63.92
- Butyric acid (ruminal fluid [3]): 15.26^a
- Isobutyric acid (ruminal fluid [3]): 0.51
- Isovaleric acid (ruminal fluid [3]): 0.66
- N-Caproic acid (ruminal fluid [3]): 0.18
- N-Valeric acid (ruminal fluid [3]): 1.55
- Propionic acid (ruminal fluid [3]): 17.92^b
- Total VFA (ruminal fluid [3]): 43.46 mmol/L
